From PubChem BioAssay (NCI)
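Exposure lasted 48 hours, with cells grown in 96-well plates and compounds tested at five concentrations. TGI is the concentration that stops growth completely.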

Assays:
Test in all cases: NCI-60 cell line screen, 48 h
EKVX NSCLC = system: EKVX NSCLC
HCC-2998 colon = system: HCC-2998 colon
NCI-H522 lung = system: NCI-H522 lung
RXF 393 renal = system: RXF 393 renal
SK-MEL-2 melanoma = system: SK-MEL-2 melanoma
SK-MEL-5 melanoma = system: SK-MEL-5 melanoma
SNB-19 CNS = system: SNB-19 CNS
T-47D breast = system: T-47D breast
UACC-257 melanoma = system: UACC-257 melanoma
UACC-62 melanoma = system: UACC-62 melanoma

Structure (SMILES)	TGI (EKVX NSCLC) [µM]	TGI (HCC-2998 colon) [µM]	TGI (NCI-H522 lung) [µM]	TGI (RXF 393 renal) [µM]	TGI (SK-MEL-2 melanoma) [µM]	TGI (SK-MEL-5 melanoma) [µM]	TGI (SNB-19 CNS) [µM]	TGI (T-47D breast) [µM]	TGI (UACC-257 melanoma) [µM]	TGI (UACC-62 melanoma) [µM]
CC(C)NC(=O)OCc1c(COC(=O)NC(C)C)c(-c2cc[n+](COC(=O)C3CCCCC3)cc2)n2c1CCC2	> 100	> 100	> 100	> 100	> 100	> 100	> 100	> 100	> 100	> 100
Cc1ccc2c(c1C)C(=O)/C(=C/c1cccc(C)c1C(=O)O)C2	> 100	> 100	> 100	> 100	> 100	> 100	> 100	> 100	> 100	> 100
Cc1cc(=O)oc2c(CNC(CC(C)C)C(=O)O)c(O)ccc12 (stereo not given)	> 100	> 100	> 100	> 100	> 100	> 100	> 100	> 100	> 100	> 100
CC(C)=NOC(=O)Nc1cccc2c1OCO2	> 100	> 100	> 100	> 100	> 100	> 100	> 100	> 100	> 100	> 100
N#Cc1nc(/C=C/c2cccnc2)oc1N	> 100	> 100	> 100	> 100	> 100	> 100	> 100	> 100	> 100	> 100
COc1cc2c3c(cc(Cl)nc3c1OC)C(O)(CC(=O)c1ccccc1)C(=O)N2 (stereo not given)	10.4	35.7	8.93	27.4	30	32.3	31.8	> 100	21.4	15.9
O=C(NCCCCCN1CCC2(CCCCC2)CC1)C(C1CCCCC1)C1CCCCC1	9.66	2.57	9.01	8.92	4.82	2.96	12.5	8.43	3.43	7.2
